Assay results from patent US5068325A, “4,5,7,8-tetrahydro-6H-thiazolo[5,4-d]azepines, their preparation and their use as pharmaceutical compositions” (priority 1988, dated 1991).

Test system: hypersensitive dopamine receptor
Test: motility triggering in the mouse treated 24 hours earlier with reserpine
Type: in vivo
Procedure: This test determines predominantly agonistic effects on the hypersensitive dopamine receptor.
Male mice are treated 24 hours before the experiment with 5 mg/kg i.p. reserpine. The animals are kept at 25°-30° C. and treated three times with 2 ml of a 5% glucose solution in tyrode s.c. (the first time when the reserpine is given, the second time in the evening of the pre-treatment day and the third time on the morning of the test day).
[…] (The injection volume is usually 0.1 ml/10 g of body weight). 30 minutes later the groups of animals are placed in the observation cages (measuring 42 x 24 x 8 cm) and fitted with an infrared lightbeam in order to measure their activity. The value measured is the frequency with which a group of 6 mice pass through the infra-red beam within 5 minutes ("running pulses/5 minutes"; mean at n=3; mean±s.e.m. at n=6).
3 to 6 groups are tested for each substance.

| SMILES | running pulses every 5 minutes (3 mg/kg s.c.) | ED (50 running pulses/5 min) (Mus musculus, sc, reserpine-treated mice, s.c., read-out: DLi50 (dosage resulting in 50 running pulses every 5 minutes)) [mg/kg] | running pulses every 5 minutes (5 mg/kg s.c.) | effectiveness in motility triggering compared with compound A (reserpine-treated mice, s.c.) |
| --- | --- | --- | --- | --- |
| C=CCN1CCc2nc(N)sc2CC1 [Compound A, reference compound] | 50 running pulses every 5 minutes | 3 |  |  |
| Nc1nc2c(s1)CCN(Cc1ccc(Cl)cc1)CC2 [Compound B, reference compound] |  |  | 22 running pulses every 5 minutes | less effective than compound A |
